Here are results for 13 compounds from US12630540B2, “(4-(6-((2-octahydrocyclopenta[c]pyrrol-5-yl)amino)pyridazin-3-yl)phenyl)(imino)(methyl)-LAMBDA6-sulfanone derivatives and similar compounds as muscarinic acetylcholine receptor M4 antagonists for the treatment of neurodegenerative disorders” (Vanderbilt University, priority 2021, dated 2026).

For the experiment, the target named is T1, Human M4 (Homo sapiens, UniProt P08173).
T1 construct: expressed in transfected cells; host or cells: CHO-K1 (ATCC), stably expressing M4 and Gqi5
T1 sequence (P08173 1-479): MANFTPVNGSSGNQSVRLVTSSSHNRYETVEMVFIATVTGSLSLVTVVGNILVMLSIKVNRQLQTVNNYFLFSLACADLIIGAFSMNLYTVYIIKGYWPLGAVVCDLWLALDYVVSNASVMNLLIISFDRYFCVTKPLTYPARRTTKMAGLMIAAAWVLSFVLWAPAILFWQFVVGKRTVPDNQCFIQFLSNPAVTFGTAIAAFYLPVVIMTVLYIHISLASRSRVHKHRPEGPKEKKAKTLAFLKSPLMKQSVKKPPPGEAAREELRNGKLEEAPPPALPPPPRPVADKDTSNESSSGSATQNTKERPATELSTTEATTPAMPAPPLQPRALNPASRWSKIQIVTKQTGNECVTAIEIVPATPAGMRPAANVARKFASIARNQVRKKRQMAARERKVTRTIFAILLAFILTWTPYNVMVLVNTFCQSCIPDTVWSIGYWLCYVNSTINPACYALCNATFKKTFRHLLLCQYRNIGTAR
In words: mAChR M4 cell-based functional assay (calcium flux, antagonism of EC80 acetylcholine response). To be noted: M4/Gqi5 CHO-K1 cells; for Human M4 Emin: % ACh maximum at 30 μM; for IC50: decrease of the response elicited by an EC80 concentration of acetylcholine. The procedure: Human or rat M4 cDNA, along with the chimeric G protein Gqi5, were transfected into Chinese hamster ovary (CHO-K1) cells purchased from the American Type Culture Collection using Lipofectamine2000. M4/Gqr5/CHO cells were grown in Ham's F-12 medium containing 10% heat-inactivated fetal bovine serum (FBS), 20 mM HEPES, 500 μg/mL G418 sulfate, and 200 μg/mL Hygromycin B.
For high throughput measurement of agonist-evoked increases in intracellular calcium, CHO-K1 cells stably expressing muscarinic receptors were plated in growth medium lacking G418 and hygromycin at 15,000 cells/20 μL/well in Greiner 384-well black-walled, tissue culture (TC)-treated, clear-bottom plates (VWR). Cells were incubated overnight at 37° C. and 5% CO2. The next day, cells were washed using an ELX 405 (BioTek) with assay buffer; the final volume was then aspirated to 20 μL. Next, 20 μL of a 2.3 μM stock of Fluo-4/acetoxymethyl ester (Invitrogen, Carlsbad, CA), prepared as a 2.3 mM stock in DMSO and mixed in a 1:1 ratio with 10% (w/v) Pluronic F-127 and diluted in assay buffer, was added to the wells and the cell plates were incubated for 50 min at 37° C. and 5% CO2. Dye was removed by washing with the ELX 405 and the final volume was aspirated to 20 μL. Compound master plates were formatted in a 10 point concentration-response curve (CRC) format (1:3 dilutions) in 100% DMSO with a starting concentration of 10 or 1 mM using a BRAVO liquid handler (Agilent). Test compound CRCs were then transferred to daughter plates (240 nL) using the Echo acoustic plate reformatter (Labcyte, Sunnyvale, CA) and then diluted into assay buffer (40 μL) to a 2× stock using a Thermo Fisher Combi (Thermo Fisher Scientific, Waltham, MA).
Calcium flux was measured using the Functional Drug Screening System (FDSS) 6000 or 7000 (Hamamatsu Corporation, Tokyo, Japan) as an increase in the fluorescent static ratio. Compounds were applied to cells (20 μL, 2×) using the automated system of the FDSS at 2 seconds into the protocol and the data were collected at 1 Hz. At 143 s, 10 μL of an EC20 concentration of the muscarinic receptor agonist acetylcholine was added (5×), followed by the addition of 12 μL of an EC80 concentration of acetylcholine at the 268 s time point (5×). Agonist activity was analyzed as a concentration-dependent increase in calcium mobilization upon compound addition. Positive allosteric modulator activity was analyzed as a concentration-dependent increase in the EC20 acetylcholine response. Antagonist activity was analyzed as a concentration-dependent decrease in the EC80 acetylcholine response; for the purposes of the tables herein, an IC50 (inhibitory concentration 50) was calculated as a concentration-dependent decrease of the response elicited by an EC80 concentration of acetylcholine. Concentration-response curves were generated using a four-parameter logistical equation in XLFit curve fitting software (IDBS, Bridgewater, NJ) for Excel (Microsoft, Redmond, WA) or Prism (GraphPad Software, Inc., San Diego, CA) or the Dotmatics software platform (Dotmatics, Bishop's Stortford, UK).
Compounds were synthesized as described above. Activity (IC50 and Emin) was determined in the mAChR M4 cell-based functional assay as described above and the data are shown in Table 2.

Regarding `[2H]C([2H])(C1CCOCC1)N1C[C@H]2C[C@H](Nc3ccc(-c4cc(F)c(S(C)(=N)=O)cc4F)nn3)C[C@H]2C1` (stereo partly drawn) [compound 1, (2,5-difluoro-4-(6-(((3aR,5s,6aS)-2-((tetrahydro-2H-pyran-4-yl)methyl-d2)octahydrocyclopenta[c]pyrrol-5-yl)amino)pyridazin-3-yl)phenyl)(imino)(methyl)-λ^6-sulfanone], the “Human M4 Emin” value was 4% and the half-inhibitory concentration (IC50) worked out at 0.0134 µM.

In the case of `[2H]C([2H])(C1CC(C)(C)OC(C)(C)C1)N1C[C@H]2C[C@H](Nc3ccc(-c4cc(F)c(S(C)(=N)=O)cc4F)nn3)C[C@H]2C1` (stereo partly drawn) [compound 11, (2,5-difluoro-4-(6-(((3aR,5s,6aS)-2-((2,2,6,6-tetramethyltetrahydro-2H-pyran-4-yl)methyl-d2)octahydrocyclopenta[c]pyrrol-5-yl)amino)pyridazin-3-yl)phenyl)(imino)(methyl)-λ^6-sulfanone], the “Human M4 Emin” value was found to be 3% and the IC50 was 0.0862 µM.

In the case of `[2H]C([2H])(C1CCOCC1)N1C[C@H]2C[C@H](Nc3ccc(-c4ccc(S(C)(=N)=O)cc4F)nn3)C[C@H]2C1` (stereo partly drawn) [compound 5, (3-fluoro-4-(6-(((3aR,5s,6aS)-2-((tetrahydro-2H-pyran-4-yl)methyl-d2)octahydrocyclopenta[c]pyrrol-5-yl)amino)pyridazin-3-yl)phenyl)(imino)(methyl)-λ^6-sulfanone], the “Human M4 Emin” value is recorded as 3% and the IC50 was determined as 0.0754 µM.

On to `[2H]C([2H])(C1CCOCC1)N1C[C@H]2C[C@H](Nc3ccc(-c4ccc(S(C)(=N)=O)c(F)c4)nn3)C[C@H]2C1` (stereo partly drawn) [compound 6, (2-fluoro-4-(6-(((3aR,5s,6aS)-2-((tetrahydro-2H-pyran-4-yl)methyl-d2)octahydrocyclopenta[c]pyrrol-5-yl)amino)pyridazin-3-yl)phenyl)(imino)(methyl)-λ^6-sulfanone], for which the “Human M4 Emin” value worked out at 3% and the IC50 was 0.188 µM.

In the case of `[2H]C([2H])(C1CCOCC1)N1C[C@H]2C[C@H](Nc3ccc(-c4cc(F)c(S(C)(=O)=NC(C)=O)cc4F)nn3)C[C@H]2C1` (stereo partly drawn) [compound 4, N-((2,5-difluoro-4-(6-(((3aR,5s,6aS)-2-((tetrahydro-2H-pyran-4-yl)methyl-d2)octahydrocyclopenta[c]pyrrol-5-yl)amino)pyridazin-3-yl)phenyl)(methyl)(oxo)-λ^6-sulfaneylidene)acetamide], the “Human M4 Emin” value came out at 6% and the IC50 amounted to 0.584 µM.

For `CS(=N)(=O)c1cc(F)c(-c2ccc(N[C@H]3C[C@@H]4CN(CCC5CCOCC5)C[C@@H]4C3)nn2)cc1F` (stereo partly drawn) [compound 9, (2,5-difluoro-4-(6-(((3aR,5s,6aS)-2-(2-(tetrahydro-2H-pyran-4-yl)ethyl)octahydrocyclopenta[c]pyrrol-5-yl)amino)pyridazin-3-yl)phenyl)(imino)(methyl)-λ^6-sulfanone], the “Human M4 Emin” value worked out at 3% and the IC50 was determined as 0.0184 µM.

As for `[2H]C([2H])([2H])N=S(C)(=O)c1cc(F)c(-c2ccc(N[C@H]3C[C@@H]4CN(C([2H])([2H])C5CCOCC5)C[C@@H]4C3)nn2)cc1F` (stereo partly drawn) [compound 3, (2,5-difluoro-4-(6-(((3aR,5s,6aS)-2-((tetrahydro-2H-pyran-4-yl)methyl-d2)octahydrocyclopenta[c]pyrrol-5-yl)amino)pyridazin-3-yl)phenyl)(methyl)((methyl-d3)imino)-λ^6-sulfanone], the “Human M4 Emin” value is 3% and the IC50 was 0.0185 µM.

For `CS(=N)(=O)c1cc(F)c(-c2ccc(N[C@H]3C[C@@H]4CN(CC5CCOCC5)C[C@@H]4C3)nn2)cc1F` (stereo partly drawn) [compound 7, (2,5-difluoro-4-(6-(((3aR,5s,6aS)-2-((tetrahydro-2H-pyran-4-yl)methyl)octahydrocyclopenta[c]pyrrol-5-yl)amino)pyridazin-3-yl)phenyl)(imino)(methyl)-λ^6-sulfanone], the “Human M4 Emin” value was determined as 3% and the IC50 came out at 0.04 µM.

For the compound `[2H]C([2H])(C1CCOCC1)N1C[C@H]2C[C@H](Nc3ccc(-c4ccc(S(C)(=N)=O)c(C(F)(F)F)c4)nn3)C[C@H]2C1` (stereo partly drawn) [compound 13, imino(methyl)(4-(6-(((3aR,5s,6aS)-2-((tetrahydro-2H-pyran-4-yl)methyl-d2)octahydrocyclopenta[c]pyrrol-5-yl)amino)pyridazin-3-yl)-2-(trifluoromethyl)phenyl)-λ^6-sulfanone], the “Human M4 Emin” value was determined as 3% and the IC50 was 0.0086 µM.

With `[2H]C([2H])(C1CCOCC1)N1C[C@H]2C[C@H](Nc3ccc(-c4ccc(S(C)(=N)=O)cc4)nn3)C[C@H]2C1` (stereo partly drawn) [compound 2, imino(methyl)(4-(6-(((3aR,5s,6aS)-2-((tetrahydro-2H-pyran-4-yl)methyl-d2)octahydrocyclopenta[c]pyrrol-5-yl)amino)pyridazin-3-yl)phenyl)-λ^6-sulfanone], the “Human M4 Emin” value is reported as 2% and the IC50 was 0.0396 µM.

For `CS(=N)(=O)c1cc(F)c(-c2ccc(N[C@H]3C[C@@H]4CN(CC5CCCCC5)C[C@@H]4C3)nn2)cc1F` (stereo partly drawn) [compound 10, (4-(6-(((3aR,5s,6aS)-2-(cyclohexylmethyl)octahydrocyclopenta[c]pyrrol-5-yl)amino)pyridazin-3-yl)-2,5-difluorophenyl)(imino)(methyl)-λ^6-sulfanone], the “Human M4 Emin” value worked out at 2% and the IC50 worked out at 0.0018 µM.

Regarding `[2H]C([2H])(C1CCOCC1)N1C[C@H]2C[C@H](Nc3ccc(-c4ccc(S(C)(=O)=NC(F)(F)F)cc4)nn3)C[C@H]2C1` (stereo partly drawn) [compound 12, methyl(4-(6-(((3aR,5s,6aS)-2-((tetrahydro-2H-pyran-4-yl)methyl-d2)octahydrocyclopenta[c]pyrrol-5-yl)amino)pyridazin-3-yl)phenyl)((trifluoromethyl)imino)-λ^6-sulfanone], the “Human M4 Emin” value was 2% and the half-maximal inhibitory concentration (IC50) was determined as 0.0434 µM.

In the case of `CS(=N)(=O)c1cc(F)c(-c2ccc(N[C@H]3C[C@@H]4CN(Cc5ccccn5)C[C@@H]4C3)nn2)cc1F` (stereo partly drawn) [compound 8, (2,5-difluoro-4-(6-(((3aR,5s,6aS)-2-(pyridin-2-ylmethyl)octahydrocyclopenta[c]pyrrol-5-yl)amino)pyridazin-3-yl)phenyl)(imino)(methyl)-λ^6-sulfanone], the “Human M4 Emin” value is 7% and the IC50 is 0.56 µM.
